Test results taken from ChEMBL document CHEMBL3112494, “Heterocyclic core analogs of a direct thrombin inhibitor” (Bioorg Med Chem Lett, 2014).

Assays:
Cytochrome P450 2C9 = Cytochrome P450 2C9 (Homo sapiens, UniProt P11712); test: Inhibition of CYP2C9 (unknown origin) up to 50 uM; type: ADME
Cytochrome P450 2D6 = Cytochrome P450 2D6 (Homo sapiens, UniProt P10635); test: Inhibition of CYP2D6 (unknown origin) up to 50 uM; type: ADME
Cytochrome P450 3A4 = Cytochrome P450 3A4 (Homo sapiens, UniProt P08684); test: Inhibition of CYP3A4 (unknown origin) up to 50 uM; type: ADME
Chain of Cytochrome P450 3A4 (P08684 whole entry): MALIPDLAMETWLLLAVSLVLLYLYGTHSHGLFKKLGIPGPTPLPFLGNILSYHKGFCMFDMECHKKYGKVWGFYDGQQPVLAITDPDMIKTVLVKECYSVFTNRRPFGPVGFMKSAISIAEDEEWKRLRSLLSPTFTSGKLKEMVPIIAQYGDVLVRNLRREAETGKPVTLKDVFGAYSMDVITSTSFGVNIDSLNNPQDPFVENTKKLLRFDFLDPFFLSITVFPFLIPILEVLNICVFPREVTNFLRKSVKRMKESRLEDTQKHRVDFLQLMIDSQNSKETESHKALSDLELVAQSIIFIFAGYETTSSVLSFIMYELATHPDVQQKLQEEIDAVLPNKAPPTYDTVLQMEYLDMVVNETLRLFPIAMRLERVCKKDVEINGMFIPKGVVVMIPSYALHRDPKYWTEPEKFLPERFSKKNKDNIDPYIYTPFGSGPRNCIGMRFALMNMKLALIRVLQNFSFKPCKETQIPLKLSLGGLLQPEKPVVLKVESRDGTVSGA

Trypsin = Trypsin (Homo sapiens, UniProt P07477+P07478+P35030); test: Inhibition of trypsin (unknown origin); type: protein assay
Coagulation factor X = Coagulation factor X (Homo sapiens, UniProt P00742); test: Inhibition of factor 10a (unknown origin)
Chain of Coagulation factor X (P00742 41-179 limits assumed): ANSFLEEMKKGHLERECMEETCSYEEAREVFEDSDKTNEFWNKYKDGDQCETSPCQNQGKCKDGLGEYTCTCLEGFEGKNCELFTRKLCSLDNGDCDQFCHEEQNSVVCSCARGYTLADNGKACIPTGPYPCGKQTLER
Chain of Coagulation factor X (P00742 235-488 limits assumed): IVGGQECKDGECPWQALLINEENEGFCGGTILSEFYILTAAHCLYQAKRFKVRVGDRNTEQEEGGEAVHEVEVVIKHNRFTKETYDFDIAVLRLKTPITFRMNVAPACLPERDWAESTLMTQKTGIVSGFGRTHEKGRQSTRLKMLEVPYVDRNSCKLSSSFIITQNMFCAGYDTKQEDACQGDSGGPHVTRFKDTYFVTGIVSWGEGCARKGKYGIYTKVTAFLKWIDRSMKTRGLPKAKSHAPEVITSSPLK

Coagulation factor XII = molecular target: T1, Coagulation factor XII (Homo sapiens, UniProt P00748); test: Inhibition of factor 12a (unknown origin)
T1 sequence (P00748 whole entry): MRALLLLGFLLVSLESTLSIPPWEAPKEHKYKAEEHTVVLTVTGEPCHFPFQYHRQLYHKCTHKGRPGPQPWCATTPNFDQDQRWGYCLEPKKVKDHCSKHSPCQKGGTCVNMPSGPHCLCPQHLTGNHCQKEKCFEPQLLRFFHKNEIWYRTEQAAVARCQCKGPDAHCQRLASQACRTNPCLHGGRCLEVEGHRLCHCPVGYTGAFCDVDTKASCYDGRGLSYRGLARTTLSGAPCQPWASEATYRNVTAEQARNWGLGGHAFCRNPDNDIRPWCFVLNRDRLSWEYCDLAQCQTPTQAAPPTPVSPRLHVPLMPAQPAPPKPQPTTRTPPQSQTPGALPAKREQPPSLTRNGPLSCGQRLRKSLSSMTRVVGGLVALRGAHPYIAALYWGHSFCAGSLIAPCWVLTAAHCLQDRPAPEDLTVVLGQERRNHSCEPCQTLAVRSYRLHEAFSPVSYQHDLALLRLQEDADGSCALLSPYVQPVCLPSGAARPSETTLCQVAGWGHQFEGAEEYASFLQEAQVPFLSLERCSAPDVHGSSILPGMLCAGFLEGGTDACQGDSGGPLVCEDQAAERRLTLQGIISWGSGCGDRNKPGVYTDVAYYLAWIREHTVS

Coagulation factor VII = molecular target: T2, Coagulation factor VII (Homo sapiens, UniProt P08709); test: Inhibition of factor 7a (unknown origin)
T2 sequence (P08709 whole entry): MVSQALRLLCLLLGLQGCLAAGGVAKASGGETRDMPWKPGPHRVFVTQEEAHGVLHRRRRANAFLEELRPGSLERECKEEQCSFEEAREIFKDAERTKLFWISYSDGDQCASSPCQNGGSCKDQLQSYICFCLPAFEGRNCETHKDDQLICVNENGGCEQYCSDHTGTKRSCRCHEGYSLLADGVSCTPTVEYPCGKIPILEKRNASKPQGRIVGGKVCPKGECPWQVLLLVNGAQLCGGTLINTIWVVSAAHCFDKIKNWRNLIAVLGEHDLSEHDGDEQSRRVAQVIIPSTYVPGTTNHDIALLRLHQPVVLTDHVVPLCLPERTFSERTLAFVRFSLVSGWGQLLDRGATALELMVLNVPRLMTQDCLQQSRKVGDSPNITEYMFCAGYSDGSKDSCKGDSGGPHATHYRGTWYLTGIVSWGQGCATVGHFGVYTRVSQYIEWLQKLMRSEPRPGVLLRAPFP

Coagulation factor IX = Coagulation factor IX (Homo sapiens, UniProt P00740); test: Inhibition of factor 9a (unknown origin)
Chain of Coagulation factor IX (P00740 47-191 limits assumed): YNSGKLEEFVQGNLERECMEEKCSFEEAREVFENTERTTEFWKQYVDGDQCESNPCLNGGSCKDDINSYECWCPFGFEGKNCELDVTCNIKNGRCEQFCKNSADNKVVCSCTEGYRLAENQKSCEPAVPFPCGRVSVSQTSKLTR
Chain of Coagulation factor IX (P00740 227-461 limits assumed): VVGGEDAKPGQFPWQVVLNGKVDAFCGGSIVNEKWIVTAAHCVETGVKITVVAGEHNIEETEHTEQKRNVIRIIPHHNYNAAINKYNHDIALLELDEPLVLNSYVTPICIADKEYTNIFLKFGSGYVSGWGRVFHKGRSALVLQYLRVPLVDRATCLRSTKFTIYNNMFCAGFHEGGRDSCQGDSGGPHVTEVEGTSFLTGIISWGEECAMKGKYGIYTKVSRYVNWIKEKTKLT

[1] = Metabolic stability in dog hepatocytes assessed as compound remaining after 90 mins; type: ADME, cell-based, Canis lupus familiaris, Hepatocyte; details: read-out: Stability
[2] = Volume of distribution in dog at 0.3 mg/kg, iv; type: ADME, organism-based, Canis lupus familiaris; parameters: dose 0.3 mg/kg, route intravenous; details: in vivo
[3] = AUC in dog at 0.3 mg/kg, iv; type: ADME, organism-based, Canis lupus familiaris; parameters: dose 0.3 mg/kg, route intravenous; details: plasma
[4] = Clearance in dog at 0.3 mg/kg, iv; type: ADME, organism-based, Canis lupus familiaris; parameters: dose 0.3 mg/kg, route intravenous; details: in vivo
[5] = Half life in dog at 0.3 mg/kg, iv; type: ADME, organism-based, Canis lupus familiaris; parameters: dose 0.3 mg/kg, route intravenous; details: in vivo
Prothrombin = Prothrombin (Homo sapiens, UniProt P00734); test: Inhibition of thrombin (unknown origin)

Chain of Cytochrome P450 2D6 (P10635 whole entry): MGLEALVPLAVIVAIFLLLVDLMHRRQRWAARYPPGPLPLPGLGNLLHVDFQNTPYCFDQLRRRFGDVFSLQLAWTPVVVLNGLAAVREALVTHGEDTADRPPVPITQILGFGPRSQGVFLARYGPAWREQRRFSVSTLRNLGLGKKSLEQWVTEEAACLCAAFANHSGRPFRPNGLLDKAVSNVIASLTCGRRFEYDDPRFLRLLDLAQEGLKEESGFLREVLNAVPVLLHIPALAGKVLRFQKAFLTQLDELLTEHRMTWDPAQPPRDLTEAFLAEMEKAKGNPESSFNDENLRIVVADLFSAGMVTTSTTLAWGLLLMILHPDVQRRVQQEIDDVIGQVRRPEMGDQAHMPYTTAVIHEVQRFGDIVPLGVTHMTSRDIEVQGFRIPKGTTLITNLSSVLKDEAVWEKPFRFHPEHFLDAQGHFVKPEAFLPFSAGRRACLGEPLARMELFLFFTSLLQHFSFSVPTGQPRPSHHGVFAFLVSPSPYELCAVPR
Chain of Cytochrome P450 2C9 (P11712 whole entry): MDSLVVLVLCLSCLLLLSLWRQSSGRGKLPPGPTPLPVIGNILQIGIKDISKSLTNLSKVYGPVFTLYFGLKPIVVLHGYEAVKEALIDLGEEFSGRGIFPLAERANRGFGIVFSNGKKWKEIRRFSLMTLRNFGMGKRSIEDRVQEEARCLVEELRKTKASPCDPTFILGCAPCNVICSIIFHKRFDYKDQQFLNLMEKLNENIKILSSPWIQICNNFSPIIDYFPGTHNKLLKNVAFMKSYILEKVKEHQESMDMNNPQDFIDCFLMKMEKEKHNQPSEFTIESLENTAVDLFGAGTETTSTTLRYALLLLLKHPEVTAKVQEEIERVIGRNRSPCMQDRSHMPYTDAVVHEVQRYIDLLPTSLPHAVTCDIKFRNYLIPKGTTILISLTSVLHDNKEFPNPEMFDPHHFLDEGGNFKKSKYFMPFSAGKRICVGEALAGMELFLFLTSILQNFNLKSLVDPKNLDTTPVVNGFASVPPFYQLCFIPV

## CC(C)(C)[C@@H](O)C(=O)N1CC[S+]([O-])C[C@H]1C(=O)NCc1cc(Cl)ccc1CN.O=C(O)C(F)(F)F (stereo partly specified)
Cytochrome P450 2C9
  inhibition (INH): Not Active
Cytochrome P450 2D6
  inhibition (INH): Not Active
Cytochrome P450 3A4
  inhibition (INH): Not Active

## CC(C)(C)[C@@H](O)C(=O)N1CCNC[C@H]1C(=O)NCc1cc(Cl)ccc1CN.O=C(O)C(F)(F)F
Cytochrome P450 2C9
  inhibition (INH): Not Active
Cytochrome P450 2D6
  inhibition (INH): Not Active
Cytochrome P450 3A4
  inhibition (INH): Not Active
Trypsin
  Ki: 15 µM
Coagulation factor X
  Ki: 4.4 µM
Coagulation factor XII
  Ki: > 15 µM
Coagulation factor VII
  Ki: > 15 µM
Coagulation factor IX
  Ki: 15 µM

## CC(C)(C)[C@@H](O)C(=O)N1CCS(=O)(=O)C[C@H]1C(=O)NCc1cc(Cl)ccc1CN.O=C(O)C(F)(F)F
Cytochrome P450 2C9
  inhibition (INH): Not Active
Cytochrome P450 2D6
  inhibition (INH): Not Active
Cytochrome P450 3A4
  inhibition (INH): Not Active
Trypsin
  Ki: 15 µM
Coagulation factor X
  Ki: 3.1 µM
Coagulation factor XII
  Ki: > 15 µM
Coagulation factor VII
  Ki: > 15 µM

## CC(C)(C)[C@@H](O)C(=O)N1CCOC[C@H]1C(=O)NCc1cc(Cl)ccc1CN.O=C(O)C(F)(F)F
Cytochrome P450 2C9
  inhibition (INH): Not Active
Cytochrome P450 2D6
  inhibition (INH): Not Active
Cytochrome P450 3A4
  inhibition (INH): Not Active
Trypsin
  Ki: 15 µM
Coagulation factor X
  Ki: 3.9 µM
Coagulation factor XII
  Ki: > 15 µM
Coagulation factor VII
  Ki: > 15 µM
Coagulation factor IX
  Ki: 15 µM

## CN1CCN(C(=O)[C@H](O)C(C)(C)C)[C@H](C(=O)NCc2cc(Cl)ccc2CN)C1.O=C(O)C(F)(F)F
Cytochrome P450 2C9
  inhibition (INH): Not Active
Cytochrome P450 2D6
  inhibition (INH): Not Active
Cytochrome P450 3A4
  inhibition (INH): Not Active
Trypsin
  Ki: 15 µM
Coagulation factor X
  Ki: 3.7 µM
Coagulation factor XII
  Ki: > 15 µM
Coagulation factor VII
  Ki: > 15 µM

## CC(C)(C)[C@@H](O)C(=O)N1CCC[C@H]1C(=O)NCc1cc(Cl)ccc1CN.O=C(O)C(F)(F)F
Cytochrome P450 2C9
  inhibition (INH): Not Active
Cytochrome P450 2D6
  inhibition (INH): Not Active
[1]
  remaining at 1.5 h: 93%
Cytochrome P450 3A4
  inhibition (INH): Not Active
[2]
  Vd: 1.9 L/kg
[3]
  AUC: 10 µM·h
[4]
  clearance: 3.5 mL/min/kg
[5]
  half-life: 6.8 h
Trypsin
  Ki: 5.6 µM
Coagulation factor X
  Ki: 1.4 µM
Coagulation factor XII
  Ki: > 15 µM
Coagulation factor VII
  Ki: > 15 µM
Coagulation factor IX
  Ki: > 3 µM
Prothrombin
  Ki: 0.0015 µM

## CC(C)(C)[C@@H](O)C(=O)N1CCSC[C@H]1C(=O)NCc1cc(Cl)ccc1CN.O=C(O)C(F)(F)F
Cytochrome P450 2C9
  inhibition (INH): Not Active
Cytochrome P450 2D6
  inhibition (INH): Not Active
[1]
  remaining at 1.5 h: 76%
Cytochrome P450 3A4
  inhibition (INH): Not Active
[2]
  Vd: 2.3 L/kg
[3]
  AUC: 1 µM·h
[4]
  clearance: 12.8 mL/min/kg
[5]
  half-life: 2.7 h
Trypsin
  Ki: 9.4 µM
Coagulation factor X
  Ki: 0.9 µM
Coagulation factor XII
  Ki: > 15 µM
Coagulation factor VII
  Ki: > 15 µM

## CC(C)(C)[C@@H](O)C(=O)N1CCCC[C@H]1C(=O)NCc1cc(Cl)ccc1CN.O=C(O)C(F)(F)F
Cytochrome P450 2C9
  inhibition (INH): Not Active
Cytochrome P450 2D6
  inhibition (INH): Not Active
Cytochrome P450 3A4
  inhibition (INH): Not Active
Trypsin
  Ki: 10.6 µM
Coagulation factor X
  Ki: 1.8 µM
Coagulation factor XII
  Ki: > 15 µM
Coagulation factor VII
  Ki: > 15 µM
